Measurements taken from patent US10669289B2, “Boronic acid derivatives” (MERCK PATENT GMBH, priority 2014, dated 2020).

Legend:
[1] = target: human immuno proteasome (LMP7) (Homo sapiens (Human), UniProt P28062); assay: Determination of LMP7 activity (fluorescence intensity assay, Suc-LLVY-AMC); assay type: biochemical
Procedure: Determination of LMP7 Activity:
Measurement of LMP7 inhibition is performed in 384 well format based on fluorescence intensity assay.
(§1) Purified human immuno proteasome (0.25 nM) and serial diluted compounds in DMSO (range of concentrations from 30 μM to 15 pM) or controls are incubated for 20 minutes or 120 minutes (long incubation) at 25° C. in assay buffer containing 50 mM Tris pH 7.4, 0.03% SDS, 1 mM EDTA and 1% DMSO. The reaction is initiated by the addition of the fluorogenic peptide substrate, Suc-LLVY-AMC (Bachem 1-1395), at a concentration of 40 μM. After 60 minutes of incubation at 37° C., fluorescence intensity is measured at λex=350 nm and λem=450 nm with a fluorescence reader (Perkin Elmer Envision reader or equivalent).
(§2) Unless indicated otherwise the results are obtained after incubation for 20 minutes.

[2] = target: human constitutive proteasome (Beta5) (Homo sapiens (Human), UniProt P28074); assay: Determination of Beta5 activity (fluorescence intensity assay, Suc-LLVY-AMC); assay type: biochemical
Procedure: Determination of Beta5 Activity:
Measurement of Beta5 inhibition is performed in 384 well format based on fluorescence intensity assay.
as §1, with “constitutive” for “immuno”, “(1.25” for “(0.25”
as §2

[3] = LMP7 versus Beta5, long incubation (120 min)
[4] = LMP7 versus Beta5, incubation for 20 minutes

C=CC(=O)N(CC(=O)N[C@@H](Cc1ccc(Cl)cc1Cl)B(O)O)C1CC1 [Compound No. 70, [(1R)-1-[[2-[cyclopropyl(prop-2-enoyl)amino]acetyl]amino]-2-(2,4-dichlorophenyl)ethyl]boronic Acid]
Selectivity LMP7 vs Beta5 [1, 3]: +++++ (Selectivity ≥ 150)
IC50 ([1]; long incubation (120 min)): < 50 nM
IC50 ([2]; long incubation (120 min)): > 5000 nM

CCN(CC(=O)N[C@@H](Cc1ccc(C)cc1C)B(O)O)C(=O)/C=C/CN(C)C [Compound No. 105, [(1R)-1-[[2-[[(E)-4-(dimethylamino)but-2-enoyl]-ethyl-amino]-acetyl]amino]-2-(2,4-dimethylphenyl)ethyl]boronic Acid]
Selectivity LMP7 vs Beta5 [1, 3]: +++++ (Selectivity ≥ 150)
IC50 ([1]; long incubation (120 min)): < 50 nM
IC50 ([2]; long incubation (120 min)): > 5000 nM

C=CC(=O)N(CC(=O)N[C@@H](Cc1ccc(Cl)cc1)B(O)O)c1ccccc1F [Compound No. 55, [(1R)-2-(4-chlorophenyl)-1-[[2-(2-fluoro-N-prop-2-enoyl-anilino)acetyl]amino]ethyl]boronic Acid]
Selectivity LMP7 vs Beta5 [1, 3]: +++++ (Selectivity ≥ 150)
IC50 ([1]; long incubation (120 min)): < 50 nM
IC50 ([2]; long incubation (120 min)): 500 to 5000 nM

C=CC(=O)N(CC)CC(=O)N[C@H](Cc1ccsc1)B(O)O [Compound No. 76, [(1S)-1-[[2-[ethyl(prop-2-enoyl)amino]acetyl]amino]-2-(3-thienyl)ethyl]boronic Acid]
Selectivity LMP7 vs Beta5 [1, 3]: + (Selectivity < 50)
IC50 ([1]; long incubation (120 min)): 500 to 5000 nM
IC50 ([2]; long incubation (120 min)): > 5000 nM

C=CC(=O)N(C)CC(=O)N[C@@H](Cc1ccc(C)c(C)c1)B(O)O [Compound No. 16, [(1R)-2-(3,4-dimethylphenyl)-1-[[2-[methyl(prop-2-enoyl)amino]-acetyl]amino]ethyl]boronic Acid]
Selectivity LMP7 vs Beta5 [1, 4]: +++++ (Selectivity ≥ 150)
IC50 ([1]; incubation for 20 minutes): < 50 nM
IC50 ([2]; incubation for 20 minutes): > 5000 nM

C=CC(=O)N(C)CC(=O)N[C@@H](Cc1ccc(C)c(C)c1C)B(O)O [Compound No. 74, [(1R)-1-[[2-[methyl(prop-2-enoyl)amino]acetyl]amino]-2-(2,3,4-trimethylphenyl)ethyl]boronic Acid]
Selectivity LMP7 vs Beta5 [1, 3]: +++++ (Selectivity ≥ 150)
IC50 ([1]; long incubation (120 min)): < 50 nM
IC50 ([2]; long incubation (120 min)): > 5000 nM

C=CC(=O)N(CC)CC(=O)N[C@@H](Cc1ccc(Cl)c(Cl)c1)B(O)O [Compound No. 65, [(1R)-2-(3,4-dichlorophenyl)-1-[[2-[ethyl(prop-2-enoyl)amino]acetyl]amino]ethyl]boronic Acid]
Selectivity LMP7 vs Beta5 [1, 3]: +++++ (Selectivity ≥ 150)
IC50 ([1]; long incubation (120 min)): < 50 nM
IC50 ([2]; long incubation (120 min)): > 5000 nM

C=CC(=O)NCC(=O)N[C@@H](Cc1ccc(C)c(C)c1)B(O)O [Compound No. 88, [(1R)-2-(3,4-dimethylphenyl)-1-[[2-(prop-2-enoylamino)acetyl]amino]ethyl]boronic Acid]
Selectivity LMP7 vs Beta5 [1, 3]: +++++ (Selectivity ≥ 150)
IC50 ([1]; long incubation (120 min)): < 50 nM
IC50 ([2]; long incubation (120 min)): 500 to 5000 nM

C/C=C(\C)C(=O)N(CC)CC(=O)N[C@@H](Cc1ccc(C)cc1C)B(O)O [Compound No. 22, [(1R)-2-(2,4-dimethylphenyl)-1-[[2-[ethyl-[(E)-2-methylbut-2-enoyl]-amino]acetyl]amino]ethyl]boronic Acid]
Selectivity LMP7 vs Beta5 [1, 4]: ++ (50 ≤ Selectivity < 70)
IC50 ([1]; incubation for 20 minutes): 50 to 500 nM
IC50 ([2]; incubation for 20 minutes): > 5000 nM

C=CC(=O)N(CC)CC(=O)N[C@@H](Cc1ccc(C)c(C)c1)B(O)O [Compound No. 14, [(1R)-2-(3,4-dimethylphenyl)-1-[[2-[ethyl(prop-2-enoyl)amino]acetyl]-amino]-ethyl]boronic Acid]
Selectivity LMP7 vs Beta5 [1, 4]: +++++ (Selectivity ≥ 150)
IC50 ([1]; incubation for 20 minutes): 50 to 500 nM
IC50 ([2]; incubation for 20 minutes): > 5000 nM

C=CC(=O)N(CC(=O)N[C@@H](C[C@H]1COc2c(C)cccc21)B(O)O)c1ccccc1F [Compound No. 91, [(1R)-1-[[2-(2-fluoro-N-prop-2-enoyl-anilino)acetyl]amino]-2-[(3R)-7-methyl-2,3-dihydrobenzofuran-3-yl]ethyl]boronic Acid]
Selectivity LMP7 vs Beta5 [1, 4]: +++++ (Selectivity ≥ 150)
IC50 ([1]; incubation for 20 minutes): 50 to 500 nM
IC50 ([2]; incubation for 20 minutes): > 5000 nM

C=CC(=O)N(CC(=O)N[C@@H](Cc1ccsc1)B(O)O)c1ccc(OC)c(OC)c1 [Compound No. 99, [(1R)-1-[[2-(3,4-dimethoxy-N-prop-2-enoyl-anilino)acetyl]-amino]-2-(3-thienyl)ethyl]boronic Acid]
Selectivity LMP7 vs Beta5 [1, 3]: +++++ (Selectivity ≥ 150)
IC50 ([1]; long incubation (120 min)): < 50 nM
IC50 ([2]; long incubation (120 min)): > 5000 nM

C=CC(=O)N(CC(=O)N[C@@H](Cc1cccs1)B(O)O)c1ccc(Br)cc1 [Compound No. 104, [(1R)-1-[[2-(4-bromo-N-prop-2-enoyl-anilino)acetyl]amino]-2-(2-thienyl)ethyl]boronic Acid]
Selectivity LMP7 vs Beta5 [1, 3]: +++++ (Selectivity ≥ 150)
IC50 ([1]; long incubation (120 min)): < 50 nM
IC50 ([2]; long incubation (120 min)): 500 to 5000 nM

C=CC(=O)N(CC(=O)N[C@@H](Cc1ccc(C)cc1C)B(O)O)CC(F)F [Compound No. 84, [(1R)-1-[[2-[2,2-difluoroethyl(prop-2-enoyl)amino]acetyl]-amino]-2-(2,4-dimethylphenyl)ethyl]boronic Acid]
Selectivity LMP7 vs Beta5 [1, 3]: +++++ (Selectivity ≥ 150)
IC50 ([1]; long incubation (120 min)): 50 to 500 nM
IC50 ([2]; long incubation (120 min)): > 5000 nM

C=CC(=O)N(CC(=O)N[C@@H](Cc1ccsc1)B(O)O)c1ccccc1 [Compound No. 92, [(1R)-1-[[2-(N-prop-2-enoylanilino)acetyl]amino]-2-(3-thienyl)ethyl]boronic Acid]
Selectivity LMP7 vs Beta5 [1, 3]: +++++ (Selectivity ≥ 150)
IC50 ([1]; long incubation (120 min)): < 50 nM
IC50 ([2]; long incubation (120 min)): > 5000 nM

C=CC(=O)N(CC(=O)N[C@@H](Cc1ccc(C)cc1C)B(O)O)c1cccc(F)c1F [Compound No. 41, [(1R)-1-[[2-(2,3-difluoro-N-prop-2-enoyl-anilino)acetyl]amino]-2-(2,4-dimethylphenyl)ethyl]boronic Acid]
Selectivity LMP7 vs Beta5 [1, 3]: +++++ (Selectivity ≥ 150)
IC50 ([1]; long incubation (120 min)): < 50 nM
IC50 ([2]; long incubation (120 min)): > 5000 nM

C=CC(=O)N(C)CC(=O)N[C@@H](Cc1ccc(Cl)c(Cl)c1)B(O)O [Compound No. 66, [(1R)-2-(3,4-dichlorophenyl)-1-[[2-[methyl(prop-2-enoyl)amino]acetyl]amino]ethyl]boronic Acid]
Selectivity LMP7 vs Beta5 [1, 3]: +++++ (Selectivity ≥ 150)
IC50 ([1]; long incubation (120 min)): < 50 nM
IC50 ([2]; long incubation (120 min)): > 5000 nM

C#CC(=O)N(CC)CC(=O)N[C@@H](Cc1ccc(C)cc1C)B(O)O [Compound No. 12, [(1R)-2-(2,4-dimethylphenyl)-1-[[2-[ethyl(prop-2-ynoyl)amino]acetyl]-amino]ethyl]boronic Acid]
Selectivity LMP7 vs Beta5 [1, 4]: ++++ (100 ≤ Selectivity < 150)
IC50 ([1]; incubation for 20 minutes): < 50 nM
IC50 ([2]; incubation for 20 minutes): 500 to 5000 nM

C/C=C/C(=O)N(CC)CC(=O)N[C@@H](Cc1ccc(C)cc1C)B(O)O [Compound No. 23, [(1R)-1-[[2-[[(E)-but-2-enoyl]-ethyl-amino]acetyl]amino]-2-(2,4-dimethylphenyl)ethyl]boronic Acid]
Selectivity LMP7 vs Beta5 [1, 4]: +++ (70 ≤ 100)
IC50 ([1]; incubation for 20 minutes): < 50 nM
IC50 ([2]; incubation for 20 minutes): 500 to 5000 nM

C=CC(=O)N1CCCC[C@H]1C(=O)N[C@@H](Cc1ccc(C)cc1C)B(O)O [Compound No. 39, [(1R)-2-(2,4-dimethylphenyl)-1-[[(2S)-1-prop-2-enoylpiperidine-2-carbonyl]amino]ethyl]boronic Acid]
Selectivity LMP7 vs Beta5 [1, 3]: ++ (50 ≤ Selectivity < 70)
IC50 ([1]; long incubation (120 min)): 500 to 5000 nM
IC50 ([2]; long incubation (120 min)): > 5000 nM
